Measurements published in patent US11980596B2 (priority 2017, dated 2024).

System: patients with treatment-resistant depression (TRD)
Assay: Adverse events (Example 7)
Assay type: in vivo, human
Method: Adverse events were monitored throughout the study. Other safety assessments (i.e., laboratory tests, vital signs, physical examination) were performed at pre-specified time points. Vital signs, the Clinician Administered Dissociative States Scale (CADSS; Bremner, “Measurement of dissociative states with the clinician-administered dissociative states scale (CADSS)”, J. Traumatic Stress, 1998, 11(1):125-136), and the 4-item positive symptom subscale from the Brief Psychiatric Rating Scale (BPRS; Overall, “The Brief Psychiatric Rating Scale. Psychological Reports”, 1962, 10:799-812) were assessed pre-dose, at 40 minutes, and 2 hours post-dose.
Safety data were analyzed in Period 1, Period 2, double-blind, and open-label data sets, for all subjects receiving at least 1 dose of study medication.

[1] = double-blind, esketamine 84 mg, N = 17
[2] = double-blind, esketamine Total, N = 56

CN[C@]1(c2ccccc2Cl)CCCCC1=O [esketamine, (S)-2-(2-chlorophenyl)-2-(methylamino)cyclohexanone]
Dysgeusia, number of participants [1]: 5
Feeling abnormal, % of participants [1]: (6) %
Feeling abnormal, number of participants [1]: 1
Headache, % of participants [1]: (18) %
Headache, number of participants [1]: 3
Hypersomnia, number of participants [1]: 0
Hypertension, % of participants [1]: (6) %
Hypertension, number of participants [1]: 1
Hypoesthesia oral, % of participants [1]: (12) %
Hypoesthesia oral, number of participants [1]: 2
Insomnia, number of participants [1]: 0
Nasal discomfort, % of participants [1]: (6) %
Nasal discomfort, number of participants [1]: 1
Nausea, % of participants [1]: (24) %
Nausea, number of participants [1]: 4
Oropharyngeal pain, % of participants [1]: (12) %
Oropharyngeal pain, number of participants [1]: 2
Polyuria, number of participants [1]: 0
Sedation, % of participants [1]: (6) %
Sedation, number of participants [1]: 1
Throat irritation, % of participants [1]: (12) %
Throat irritation, number of participants [1]: 2
Total with events, % of participants [1]: (88) %
Total with events, number of participants [1]: 15
Tunnel vision, % of participants [1]: (12) %
Tunnel vision, number of participants [1]: 2
Vertigo, % of participants [1]: (6) %
Vertigo, number of participants [1]: 1
Vision blurred, % of participants [1]: (12) %
Vision blurred, number of participants [1]: 2
Dissociation, % of participants [2]: (20) %
Dissociation, number of participants [2]: 11
Dissociative disorder, % of participants [2]: (13) %
Dissociative disorder, number of participants [2]: 7
Dizziness, % of participants [2]: (36) %
Dizziness, number of participants [2]: 20
Dysgeusia, % of participants [2]: (18) %
Dysgeusia, number of participants [2]: 10
Feeling abnormal, % of participants [2]: (7) %
Feeling abnormal, number of participants [2]: 4
Headache, % of participants [2]: (21) %
Headache, number of participants [2]: 12
Hypersomnia, % of participants [2]: (4) %
Hypersomnia, number of participants [2]: 2
Hypertension, % of participants [2]: (5) %
Hypertension, number of participants [2]: 3
Hypoesthesia oral, % of participants [2]: (13) %
Hypoesthesia oral, number of participants [2]: 7
Insomnia, % of participants [2]: (4) %
Insomnia, number of participants [2]: 2
Nasal discomfort, % of participants [2]: (5) %
Nasal discomfort, number of participants [2]: 3
Nausea, % of participants [2]: (18) %
Nausea, number of participants [2]: 10
Oropharyngeal pain, % of participants [2]: (5) %
Oropharyngeal pain, number of participants [2]: 3
Polyuria, % of participants [2]: (4) %
Polyuria, number of participants [2]: 2
Sedation, % of participants [2]: (7) %
Sedation, number of participants [2]: 4
Throat irritation, % of participants [2]: (5) %
Throat irritation, number of participants [2]: 3
Total with events, % of participants [2]: (75) %
Total with events, number of participants [2]: 42
Tunnel vision, % of participants [2]: (4) %
Tunnel vision, number of participants [2]: 2
Vertigo, % of participants [2]: (7) %
Vertigo, number of participants [2]: 4
Vision blurred, % of participants [2]: (4) %
Vision blurred, number of participants [2]: 2
Adverse event: dizziness (open-label phase): 38.6%
Adverse event: dysgeusia (open-label phase): 22.8%
Adverse event: headache (open-label phase): 14.0%
Adverse event: nausea (open-label phase): 15.8%
Adverse event: sedation (open-label phase): 10.5%
